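In this assay, cells in 96-well plates receive the compound at five concentrations for 48 hours. Endpoints are linearly interpolated between the surrounding concentrations. GI50 marks 50% less growth.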 The source made the active and inactive calls. Cut-off read from the data, not from the text of the source: active = GI50 up to about 1.1 µM and inactive = higher.
What was measured:
Assay in all cases: NCI tumour cell line growth inhibition, 48 h
[1] = tested on: BT-549
[2] = tested on: CCRF-CEM
[3] = tested on: HCT-15
[4] = tested on: HL-60
[5] = tested on: HT-29
[6] = tested on: MCF7
[7] = tested on: MDA-MB-231
[8] = tested on: MDA-N
[9] = tested on: NCI-H226
[10] = tested on: NCI-H23
[11] = tested on: OVCAR-4
[12] = tested on: OVCAR-5
[13] = tested on: PC-3
[14] = tested on: SF-539
[15] = tested on: SK-MEL-28
[16] = tested on: SN12C
[17] = tested on: SR
[18] = tested on: T47D
[19] = tested on: TK-10
[20] = tested on: UO-31

| SMILES | GI50 [1] | GI50 [2] | GI50 [3] [µM] | GI50 [4] | GI50 [5] | GI50 [6] | GI50 [7] | GI50 [8] | GI50 [9] | GI50 [10] | GI50 [11] | GI50 [12] | GI50 [13] | GI50 [14] | GI50 [15] | GI50 [16] | GI50 [17] | GI50 [18] | GI50 [19] | GI50 [20] |
| --- | --- | --- | --- | --- | --- | --- | --- | --- | --- | --- | --- | --- | --- | --- | --- | --- | --- | --- | --- | --- |
| CCOC(=O)n1c(=O)nc2c3c(ncn21)Oc1c(c(-c2ccccc2)nn1-c1ccccc1)C3c1ccc(Cl)cc1 (stereo not drawn) | 1.57 µM (inactive) | 1.1 µM (active) | 1.18 | 1.26 µM (inactive) | 1.75 µM (inactive) | 1.56 µM (inactive) | 1.4 µM (inactive) | 1.65 µM (inactive) | 1.63 µM (inactive) | 1.69 µM (inactive) | 1.15 µM (inactive) | 2.1 µM (inactive) | 1.73 µM (inactive) | 1.56 µM (inactive) | 1.79 µM (inactive) | 1.82 µM (inactive) | 1.35 µM (inactive) | 1.77 µM (inactive) | 1.7 µM (inactive) | 1.49 µM (inactive) |
| Nc1nc(SCc2ccccn2)c2ncn(C3CCCC3)c2n1 | > 100 µM (inactive) | > 100 µM (inactive) | > 100 | 97.3 µM (inactive) | > 100 µM (inactive) | > 100 µM (inactive) | > 100 µM (inactive) | > 100 µM (inactive) | > 100 µM (inactive) | > 100 µM (inactive) | > 100 µM (inactive) | > 100 µM (inactive) | > 100 µM (inactive) | – | > 100 µM (inactive) | > 100 µM (inactive) | > 100 µM (inactive) | 76 µM (inactive) | > 100 µM (inactive) | 15 µM (inactive) |
| CN(C)CCNc1ccc2ncn3c4ccc(O)cc4c(=O)c1c23 | 14.2 µM (inactive) | 0.171 µM (active) | 0.715 | 0.647 µM (active) | 1.06 µM (active) | 0.0832 µM (active) | 1.67 µM (inactive) | 2.88 µM (inactive) | 0.476 µM (active) | 0.614 µM (active) | 1.04 µM (active) | 3.38 µM (inactive) | 1.42 µM (inactive) | 0.46 µM (active) | 4.53 µM (inactive) | 0.562 µM (active) | – | 10.2 µM (inactive) | 2.66 µM (inactive) | 0.845 µM (active) |
| COc1cccc(-c2nc(-c3cnccn3)n(C3OC(CO)C(O)C3O)n2)c1 (stereo not drawn) | > 100 µM (inactive) | > 100 µM (inactive) | > 100 | > 100 µM (inactive) | > 100 µM (inactive) | > 100 µM (inactive) | > 100 µM (inactive) | > 100 µM (inactive) | – | > 100 µM (inactive) | > 100 µM (inactive) | > 100 µM (inactive) | > 100 µM (inactive) | > 100 µM (inactive) | > 100 µM (inactive) | > 100 µM (inactive) | > 100 µM (inactive) | > 100 µM (inactive) | > 100 µM (inactive) | > 100 µM (inactive) |
| Cc1cccc(CP(Cc2cccc(C)c2)CC2(Cp3c4ccccc4c4ccccc43)COC2)c1 | 3.96 µM (inactive) | 0.406 µM (active) | 31 | 0.332 µM (active) | 0.485 µM (active) | 3.15 µM (inactive) | 1.3 µM (inactive) | 6.32 µM (inactive) | 4.11 µM (inactive) | 11.5 µM (inactive) | 13.3 µM (inactive) | > 100 µM (inactive) | 0.935 µM (active) | 12.1 µM (inactive) | 13 µM (inactive) | 4.41 µM (inactive) | 1.15 µM (inactive) | 1.73 µM (inactive) | – | 16.3 µM (inactive) |
| O=C1c2ccccc2NC(c2cc(Cl)cc(Cl)c2O)N1CCc1ccccn1 (stereo not drawn) | > 100 µM (inactive) | – | 86.3 | > 100 µM (inactive) | 80.9 µM (inactive) | 61 µM (inactive) | > 100 µM (inactive) | 97.9 µM (inactive) | > 100 µM (inactive) | > 100 µM (inactive) | 36.8 µM (inactive) | > 100 µM (inactive) | 24 µM (inactive) | > 100 µM (inactive) | > 100 µM (inactive) | 69.8 µM (inactive) | 47.5 µM (inactive) | 26.7 µM (inactive) | > 100 µM (inactive) | > 100 µM (inactive) |
| COC(=O)C1=C(C(=O)OC)SC(=C2SC3=C(SC(=C4SCCS4)S3)S2)S1 | > 100 µM (inactive) | > 100 µM (inactive) | – | > 100 µM (inactive) | > 100 µM (inactive) | > 100 µM (inactive) | > 100 µM (inactive) | > 100 µM (inactive) | > 100 µM (inactive) | > 100 µM (inactive) | – | > 100 µM (inactive) | > 100 µM (inactive) | – | > 100 µM (inactive) | > 100 µM (inactive) | > 100 µM (inactive) | > 100 µM (inactive) | > 100 µM (inactive) | > 100 µM (inactive) |
| CN(CCO)CC(=O)CC(O)(C(F)(F)F)C(F)(F)F | 43.7 µM (inactive) | 32.1 µM (inactive) | 33.3 | 26.4 µM (inactive) | 30.7 µM (inactive) | 46.2 µM (inactive) | 29.7 µM (inactive) | 32.1 µM (inactive) | 36.3 µM (inactive) | 23.6 µM (inactive) | 50 µM (inactive) | 52.5 µM (inactive) | 26.2 µM (inactive) | 34.7 µM (inactive) | 42.6 µM (inactive) | – | 40.8 µM (inactive) | 28.4 µM (inactive) | 35.4 µM (inactive) | 39.1 µM (inactive) |
| NC(=O)c1cc2ccccc2o/c1=N/c1ccccc1 | > 100 µM (inactive) | > 100 µM (inactive) | > 100 | > 100 µM (inactive) | > 100 µM (inactive) | > 100 µM (inactive) | > 100 µM (inactive) | > 100 µM (inactive) | > 100 µM (inactive) | > 100 µM (inactive) | > 100 µM (inactive) | > 100 µM (inactive) | > 100 µM (inactive) | > 100 µM (inactive) | > 100 µM (inactive) | > 100 µM (inactive) | > 100 µM (inactive) | > 100 µM (inactive) | – | – |
| NC1=C(Cl)C(=O)c2c(O)ccc(O)c2C1=O | 1.93 µM (inactive) | 4.09 µM (inactive) | 3.37 | 2.55 µM (inactive) | 2.54 µM (inactive) | 1.55 µM (inactive) | 5.73 µM (inactive) | 1.77 µM (inactive) | 11.6 µM (inactive) | 2.05 µM (inactive) | 4.11 µM (inactive) | 5.85 µM (inactive) | 3.47 µM (inactive) | 2.84 µM (inactive) | 2.39 µM (inactive) | 3.28 µM (inactive) | – | 7.24 µM (inactive) | 15.2 µM (inactive) | 9.06 µM (inactive) |
| COc1ccc(C(SC2C(O)C(CO)OC2n2ccc(=O)[nH]c2=O)(c2ccccc2)c2ccc(OC)cc2)cc1 (stereo not drawn) | 16.6 µM (inactive) | 23.8 µM (inactive) | 15.5 | 25.6 µM (inactive) | 17.6 µM (inactive) | 17.1 µM (inactive) | 16.1 µM (inactive) | 9.66 µM (inactive) | 16.6 µM (inactive) | 17.7 µM (inactive) | 19.7 µM (inactive) | 18.4 µM (inactive) | 14.9 µM (inactive) | 22 µM (inactive) | 21.8 µM (inactive) | 14.4 µM (inactive) | – | 16.6 µM (inactive) | 25.4 µM (inactive) | 16.6 µM (inactive) |
| NNC(=O)c1cc(=O)[nH][nH]1 | > 100 µM (inactive) | > 100 µM (inactive) | > 100 | – | > 100 µM (inactive) | > 100 µM (inactive) | > 100 µM (inactive) | > 100 µM (inactive) | > 100 µM (inactive) | > 100 µM (inactive) | > 100 µM (inactive) | > 100 µM (inactive) | > 100 µM (inactive) | > 100 µM (inactive) | – | > 100 µM (inactive) | – | > 100 µM (inactive) | > 100 µM (inactive) | > 100 µM (inactive) |
| CC1CCCC2(CC[N+](C)(CCC[N+](C)(C)C)CC2)C1 (stereo not drawn) | > 100 µM (inactive) | – | > 100 | 5.48 µM (inactive) | > 100 µM (inactive) | > 100 µM (inactive) | > 100 µM (inactive) | > 100 µM (inactive) | > 100 µM (inactive) | – | > 100 µM (inactive) | > 100 µM (inactive) | > 100 µM (inactive) | > 100 µM (inactive) | > 100 µM (inactive) | > 100 µM (inactive) | > 100 µM (inactive) | > 100 µM (inactive) | > 100 µM (inactive) | > 100 µM (inactive) |
| COC1=CC2=NCCc3n[nH]c(c32)C1=O | 16.9 µM (inactive) | – | 46.3 | 0.0482 µM (active) | 13 µM (inactive) | 4.86 µM (inactive) | 14.5 µM (inactive) | 10.9 µM (inactive) | – | 14.4 µM (inactive) | – | 18.5 µM (inactive) | 19.5 µM (inactive) | 17.3 µM (inactive) | 18.1 µM (inactive) | 13.7 µM (inactive) | 13.4 µM (inactive) | 2.9 µM (inactive) | 22.1 µM (inactive) | 24.7 µM (inactive) |
| CCC(NC(C)c1ccccc1)C(=O)c1ccc(OCc2ccccc2)c(OCc2ccccc2)c1 (stereo not drawn) | > 100 µM (inactive) | – | > 100 | > 100 µM (inactive) | > 100 µM (inactive) | > 100 µM (inactive) | > 100 µM (inactive) | > 100 µM (inactive) | > 100 µM (inactive) | > 100 µM (inactive) | > 100 µM (inactive) | > 100 µM (inactive) | > 100 µM (inactive) | > 100 µM (inactive) | > 100 µM (inactive) | > 100 µM (inactive) | > 100 µM (inactive) | > 100 µM (inactive) | > 100 µM (inactive) | > 100 µM (inactive) |

Reference: ChEMBL document CHEMBL1201862, “PubChem BioAssay data set” (2004)
